Experimental data reported in patent US5322846A, “4-methylthiazole derivatives, their methods of preparation and the pharmaceutical compositions in which they are present” (Institut de Recherches Chimiques et Biologiques Appliquees …, priority 1990, dated 1994).
Like-named read-outs stand apart in the source and are kept apart here.

What was measured:
[1] = Acute toxicity in mice (oral, LD50); settings: mouse, in vivo, male mice, single dose, 14-day observation
Procedure: The products were administered orally in a single dose to male mice with an average weight of 22 g. The mortality was recorded after a 14-day observation period.
The results are expressed in the form of the 50% lethal dose (LD50), i.e. the theoretical dose in mg.kg^-1, administered orally, which causes the death of 50% of the animals.
The majority of the molecules have an LD50 of more than 1 g.kg^-1. These are therefore products with a low toxicity after a single administration.

[2] = tested on: lethal effect of norepinephrine; assay: Adrenolytic activity in vivo on the lethal effect of norepinephrine in rats; settings: for ED50: Rattus norvegicus, wake male rats, norepinephrine 0.4 mg.kg^-1 intravenous, prior administration of product, read-out: ED50 (dose which protects 50% of the animals); for adrenolytic activity in the whole animals: rats, in words
Procedure: The intravenous injection of norepinephrine (0.4 mg.kg^-1) into wake male rats causes the death of 100% of the animals. The prior administration of a substance which has an alpha-blocking property makes it possible to reduce this toxicity.
The results are expressed in the form of the 50% effective dose (ED50), i.e. the dose in mg.kg^-1 which protects 50% of the animals (Table 5).

[3] = target: T1, postsynaptic alpha-adrenergic receptors (Rattus norvegicus, UniProt P43140); assay: Alpha-blocking activity towards norepinephrine on isolated rat vas deferens; type: biochemical; settings: -log of concentration requiring doubled norepinephrine; for Kb: read-out: pA2 (converted)
T1 construct: causes contraction of the isolated vas deferens; from tissue; host or cells: isolated rat vas deferens
T1 sequence (P43140 1-466): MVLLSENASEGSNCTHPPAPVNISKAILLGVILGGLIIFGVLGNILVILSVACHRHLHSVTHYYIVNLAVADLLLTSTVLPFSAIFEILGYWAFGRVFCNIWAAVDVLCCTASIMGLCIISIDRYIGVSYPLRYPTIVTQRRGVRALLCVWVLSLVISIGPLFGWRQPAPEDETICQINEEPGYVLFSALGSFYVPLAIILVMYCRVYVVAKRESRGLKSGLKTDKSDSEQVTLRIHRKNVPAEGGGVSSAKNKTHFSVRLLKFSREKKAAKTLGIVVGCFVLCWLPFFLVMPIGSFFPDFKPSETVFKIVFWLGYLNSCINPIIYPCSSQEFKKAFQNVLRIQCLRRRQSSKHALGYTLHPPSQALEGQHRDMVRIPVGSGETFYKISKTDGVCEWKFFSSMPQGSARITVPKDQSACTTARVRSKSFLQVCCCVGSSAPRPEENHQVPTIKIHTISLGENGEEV
Procedure: Stimulation of the postsynaptic alpha-adrenergic receptors by norepinephrine causes contraction of the isolated vas deferens.
The concentration of product in whose presence the norepinephrine concentration must be doubled in order to obtain the same effect as in the absence of said product is determined. The logarithm of this concentration, with the opposite sign, constitutes the pA2 of the products.
Their alpha-blocking activity is high since it appears for low concentrations of between 10^-6 M and 10^-8 M.

[4] = tested on: hypertension induced by norepinephrine; assay: Inhibitory activity towards hypertension induced by norepinephrine in anesthetized rabbits; type: in vivo; settings: Oryctolagus cuniculus; anesthetized male rabbits, intravenous; read-out: ID50 (50% inhibition of norepinephrine-induced hypertension)
Procedure: The blood pressure is measured by catheterization of the left carotid artery of anesthetized male rabbits. An increase in blood pressure is induced by an intravenous injection of norepinephrine. This hypertension can be inhibited by the prior administration of molecules with an alpha-blocking potential.
These are presented in Table 6 in the form of the 50% inhibitory dose (ID50), which is defined as the dose of product which, when administered intravenously, causes a 50% inhibition of the hypertension induced by norepinephrine.

[5] = tested on: femoral blood pressure and heart rate; assay: Cardiovascular activity (blood pressure and heart rate) in anesthetized rats; type: in vivo; settings: for Heart rate, maximum effect in % / ED25: I.V., pentobarbital-anesthetized rats; for ED25: Rattus norvegicus, iv, 25% drop in average blood pressure; for hypotensive potential compared with nicardipine: ED25 values 5 min after I.V. injection, in words
Procedure: The cardiovascular effects of three products were studied in rats anesthetized with pentobarbital and placed under artificial respiration. The femoral blood pressure and the heart rate are recorded by means of a GOULD-BRUSH apparatus.
The products are administered intravenously in increasing doses. Three animals are tested per product. The dose which causes a 25% drop in average blood pressure (ED25) was evaluated for each product and compared with nicardipine 1 to 5 min after administration.
The products have dose-dependent hypotensive effects but have little or no effect on the heart rate (Table 7). The most hypotensive in terms of the effective dose is B 1395 (ED25 of 0.004 mg.kg^-1).

[6] = 1 min, 1 minute, read-out: Blood pressure: Hypotension, ED25 at 1 minute
[7] = 5 min, 5 minutes, read-out: Blood pressure: Hypotension, ED25 at 5 minutes

Row | SMILES | LD50 at 336 h [1] | ED50 [2] | Kb [3] | ED50 [4] | adrenolytic activity in the whole animals [2] | Heart rate, maximum effect in % [5] | ED25 [5, 6] | ED25 [5, 7] | hypotensive potential compared with nicardipine [5] | pA2 [3]
1 | Cc1ncsc1OCCN1CCN(c2cccc(C(F)(F)F)c2)CC1 [B 1194, 4-methyl-5-[2-(4-m-trifluoromethylphenylpiperazin-1yl)ethoxy]thiazole] | > 1000 mg/kg | 200 mg/kg | 2570 nM | – | – | – | – | – | – | –
2 | Cc1ncsc1OCCN1CCN(c2ccccc2)CC1 [B 1216, 4-methyl-5-[2-(4-phenylpiperazin-1-yl)ethoxy]thiazole] | > 1000 mg/kg | 33 mg/kg | 89.1 nM | > 3 mg/kg | – | – | – | – | – | –
3 | COc1ccccc1N1CCN(CCOc2scnc2C)CC1 [B 1223, 4-methyl-5-[2-(4-o-methoxyphenylpiperazin-1-yl)ethoxy]thiazole] | > 1000 mg/kg | 13 mg/kg | 269 nM | – | – | – | – | – | – | –
4 | Cc1ncsc1OCCN1CCN(c2ccc(F)cc2)CC1 [B 1227, 4-methyl-5-[2-(4-p-fluorophenylpiperazin-1-yl)ethoxy]thiazole] | 1000 mg/kg | 30 mg/kg | > 1000 nM | – | – | – | – | – | – | –
5 | CCCOc1ccccc1N1CCN(CCOc2scnc2C)CC1 [B 1242] | – | – | – | – | very active | – | – | – | – | –
6 | CCOc1ccccc1N1CCN(CCOc2scnc2C)CC1 [B 1258, 4-methyl-5-[2-(4-o-ethoxyphenylpiperazin-1-yl)ethoxy]thiazole] | > 1000 mg/kg | 6.5 mg/kg | 15.8 nM | 5.6 mg/kg | very active | -5.6% | 0.8 mg/kg | 1 mg/kg | – | –
7 | Cc1cc(Cl)ccc1N1CCN(CCOc2scnc2C)CC1 [B 1259, 4-methyl-5-[2-[4-(4-chloro-2-methylphenyl)piperazin-1-yl]ethoxy]thiazole] | 630 mg/kg | 45 mg/kg | 1350 nM | – | – | – | – | – | – | –
8 | Cc1ncsc1OCCN1CCN(c2ccccc2F)CC1 [B 1305, 4-methyl-5-[2-(4-o-fluorophenylpiperazin-1-yl)-ethoxy]thiazole] | > 1000 mg/kg | 35 mg/kg | 81.3 nM | 3 mg/kg | – | – | – | – | – | –
9 | Cc1ccc(Cl)cc1N1CCN(CCOc2scnc2C)CC1 [B 1313, 4-methyl-5-[2-[4-(5-chloro-2-methylphenyl)piperazin-1-yl]ethoxy]thiazole] | 770 mg/kg | 109 mg/kg | 81.3 nM | – | – | – | – | – | – | –
10 | CCOc1cccc(N2CCN(CCOc3scnc3C)CC2)c1 [B 1325, 4-methyl-5-[2-(4-m-ethoxyphenylpiperazin-1-yl)-ethoxy]thiazole] | > 1000 mg/kg | 49 mg/kg | 813 nM | – | – | – | – | – | – | –
11 | CCCOc1ccccc1N1CCN(CCOc2scnc2C)CC1 [B 1342, 4-methyl-5-[2-(4-o-propoxyphenylpiperazin-1-yl)-ethoxy]thiazole] | > 1000 mg/kg | 4 mg/kg | 16.2 nM | 7.3 mg/kg | – | – | – | – | – | –
12 | Cc1cccc(Cl)c1N1CCN(CCOc2scnc2C)CC1 [B 1366, 4-methyl-5-[2-[4-(6-chloro-2-methylphenyl)piperazin-1-yl]ethoxy]thiazole] | 740 mg/kg | 100 mg/kg | > 1000 nM | – | – | – | – | – | – | –
13 | Cc1ncsc1OCC(O)CN1CCN(c2ccccc2O)CC1 (stereo not drawn) [B 1396, 3-(4-o-hydroxyphenylpiperazin-1-yl)-1-(4-methylthiazolyl-5-oxy)propan-2-ol] | 315 mg/kg | 0.6 mg/kg | 316 nM | – | very active | 0% | 0.008 mg/kg | 0.06 mg/kg | on a level with that of nicardipine | –
14 | Cc1cc(Cl)ccc1N1CCN(CC(O)COc2scnc2C)CC1 (stereo not drawn) [B 1406, 3-[4-(4-chloro-2-methylphenyl)piperazin-1-yl]-1-(4-methylthiazolyl-5-oxy)propan-2-ol] | 515 mg/kg | 8.1 mg/kg | – | – | – | – | – | – | – | 6.40
15 | Cc1ncsc1OCC(O)CN1CCN(c2ccccc2OC(C)C)CC1 (stereo not drawn) [B 1429, 3-(4-o-isopropoxyphenylpiperazin-1-yl)-1-(4-methylthiazolyl-5-oxy)propan-2-ol] | 428 mg/kg | 0.5 mg/kg | 4.57 nM | – | very active | -5.1% | 0.016 mg/kg | 0.03 mg/kg | – | –
16 | Cc1ncsc1OCCN1CCN(c2ccccc2O)CC1 [B 1430, 4-methyl-5-[2-(4-o-hydroxyphenylpiperazin-1-yl)-ethoxy]thiazole] | 305 mg/kg | 8.3 mg/kg | 229 nM | – | – | – | – | – | – | –
17 | Cc1ncsc1OCC(O)CN1CCN(c2ccccc2OCC(C)C)CC1 (stereo not drawn) [B 1431, 3-(4-o-phenylpiperazin-1-yl)-1-(4-methylthiazolyl-5-oxy)propan-2-ol] | 1000 mg/kg | 0.4 mg/kg | 7.41 nM | – | very active | -12% | 0.1 mg/kg | 0.24 mg/kg | on a level with that of nicardipine | –
18 | Cc1ncsc1OCC(O)CN1CCN(c2cccc(C(F)(F)F)c2)CC1 (stereo not drawn) [B 1489, 3-(4-m-trifluoromethylphenylpiperazin-1-yl)-1-(4-methylthiazolyl-5-oxy)propan-2-ol] | > 1000 mg/kg | 59.7 mg/kg | – | – | – | – | – | – | – | –
19 | COc1ccccc1N1CCN(CC(O)COc2scnc2C)CC1 (stereo not drawn) [B 1510, 3-(4-o-methoxyphenylpiperazin-1-yl)-1-(4-methylthiazolyl-5-oxy)propan-2-ol] | 235 mg/kg | 0.52 mg/kg | 21.4 nM | – | very active | -6% | 0.01 mg/kg | 0.01 mg/kg | – | –
20 | CCCCCOc1ccccc1N1CCN(CC(O)COc2scnc2C)CC1 (stereo not drawn) [B 1525, 3-(4-o-pentoxyphenylpiperazin-1-yl)-1-(4-methylthiazolyl-5-oxy)propan-2-ol] | > 1000 mg/kg | 1.27 mg/kg | 7.94 nM | – | very active | -8% | 0.04 mg/kg | 0.04 mg/kg | – | –
21 | Cc1ncsc1OCC(O)CN1CCN(c2cccc(Cl)c2)CC1 (stereo not drawn) [B 1548, 3-(4-m-chlorophenylpiperazin-1-yl)-1-(4-methylthiazolyl-5-oxy)propan-2-ol] | > 500 mg/kg | 15.8 mg/kg | – | – | very active | – | – | – | – | –
22 | Cc1ncsc1OCC(O)CN1CCN(c2ccccc2OCCC(C)C)CC1 (stereo not drawn) [B 1552, 3-(4-o-isopentoxyphenylpiperazin-1-yl)-1-(4-methylthiazolyl-5-oxy)propan-2-ol] | > 1000 mg/kg | 1.55 mg/kg | 22.9 nM | – | very active | -7.9% | 0.12 mg/kg | 0.25 mg/kg | on a level with that of nicardipine | –
23 | Cc1ncsc1OCC(O)CN1CCN(c2ccccc2OCC(C)(C)C)CC1 (stereo not drawn) [B 1562, 3-(4-o-neopentoxyphenylpiperazin-1-yl)-1-(4-methylthiazolyl-5-oxy)propan-2-ol] | > 1000 mg/kg | – | – | – | – | – | – | – | – | –
24 | COC(=O)C1=C(C)NC(C)=C(C(=O)OCCN(C)Cc2ccccc2)C1c1cccc([N+](=O)[O-])c1 (stereo not drawn) [NICARDIPINE, nicardipine, reference compound] | – | – | – | – | – | 0% | 0.0015 mg/kg | 0.2 mg/kg | – | –
